One data set relates to SARS-CoV-2. The data set can be described thus: Anti-viral in vitro PRNT assay in Vero E6 cells. It counts as cell-based. The note with it: Vero E6 cells, 1000 pfu, 3 days, plaque reduction; for EC50: read-out: anti-SARS-CoV2 (PRNT) in Vero E6 EC50.
The format of data set [1] is in vitro ADME, Human. Particulars: extraction ratio, compound at 1 uM, human liver microsomes 0.5 mg/mL. The method, then: (§1) Metabolic stability of novel protease inhibitors was determined via liver microsomal stability assay. Human, mouse, SD rat, beagle dog or monkey liver microsomes were incubated with the test compound for 5 to 60 minutes at 37° C., and then the remaining parent compound was quantified by LC-MS/MS. Percentage of the test compound remaining, half-life (t1/2), in vitro intrinsic clearance (CLint, in vitro), in vivo intrinsic clearance (CLint, in vivo), hepatic clearance (CLh) and extraction ratio (ER) were calculated.
(§2) Procedure: The assay was done as described in Baranczewski, P. et al. (2006) Pharmacological Reports 58:453-472; Pearson, P. and Wienkers, L. (2008) Handbook of Drug Metabolism, 2nd Edition. CRC Pres, P.478; and Venkatesh, P. et al. (2007) Biol. Pharm. Bull. 30:1021-2024. 0.625 mg/mL liver microsomes solution was prepared by mixing 2325 μL 100 mM of K-phosphate buffer (pH 7.4) containing 2.5 mM of MgCl2, 1.25 mM of EDTA, and 75 μL microsomes (20 mg/mL) in a vial for each species.
(§3) Positive control compound: (±) Verapamil hydrochloride (Cat No.: V4629; Lot No.: MKBV4993V; Source: Sigma)
40 μL aliquots of the liver microsome/test compound mixture were dispensed into 96-well plate in triplicate and pre-warmed the mixture for 5 minutes at 37° C. Then, 10 μL of 5 mM NADPH solution was added to each well to initiate the reaction, and gently mixed. The samples were incubated at 37° C. with gentle shaking.
(§4) For 0-min samples, 200 μL of ACN containing internal standard was added to 40 μL of liver microsome/test compound mixture, followed by addition of 5 mM NADPH, and mixed gently.
(§5) For negative control: 40 μL of liver microsome/test compound mixture was incubated at 37° C. with gentle shaking for 60 minutes, followed by addition of 200 μL ACN containing 1% FA and internal standard and 10 μL of 5 mM NADPH, mixed gently.
(§6) All samples were centrifuged at 4° C. for 20 minutes at 4,000 rpm. Then, 100 μL of the supernatant from each sample was transferred to a new 96-well plate and 100 μL of ultrapure water containing 1% FA was added to each well, and mixed gently. Samples were analyzed by LC-MS/MS.
(§7) Data Analysis: Peak area ratio (Peak Area of test compound/Peak Area of internal standard) was used to represent the concentration of compound in each sample. The remaining percentage (% Remaining) at appointed time points was calculated versus the concentration of compound at 0 min. The Ln value of the remaining percentage was linearly fitted against the incubation time.
(§8) The half-life and clearance were calculated using the following equations:
(§9) Determined percent of the remaining test compound: % remaining=[area at tx/average areas at t0]×100 (1) % metabolized=[100−% remaining] (2)
(§10) Calculated the half-life (t1/2) using the slope (k) of the log-linear regression from the concentration of remaining parent compound versus time (min) relationship: t1/2 (min)=−ln 2/k. (3)
(§11) Clint, in vitro (mL/min/mg) Clint,in vitro=k/c,(c:Liver microsome concentration in the incubation system) (4)
(§12) Hepatic Clearance (CLh) CLh=Clint,in vivo*Hepatic Blood Flow (mL/min/kg)/(Hepatic Blood Flow (mL/min/kg)+Clint,in vivo) (6)
(§13) Extraction ratio (ER): ER=CLint,in vivo/(Qh+CLint,in vivo)*100,Qh:liver blood flow (7)
On the technique in general: Microsomes from liver hold many membrane-bound enzymes, among them those of drug oxidation.

The format of data set [2] is in vitro ADME. Particulars: extraction ratio, compound at 1 uM; for Liver Microsomal Stability (ER) SD rat: SD rat liver microsomes 0.5 mg/mL; for Liver Microsomal Stability (ER) Beagle dog: beagle dog liver microsomes 0.5 mg/mL; for Liver Microsomal Stability (ER) Monkey: monkey liver microsomes 0.5 mg/mL; for Liver Microsomal Stability (ER) Mouse: mouse liver microsomes 0.5 mg/mL. The method, then: as §1, §2, §3
40 μL aliquots of the liver microsome/test compound mixture were dispensed into 96-well plate in triplicate and pre-warmed the mixture for 5 minutes at 37° C. Then, 10 μL of 5 mM NADPH solution was added to each well to initiate the reaction, and gently mixed. The samples were incubated at 37° C. with gentle shaking. (Final concentrations: compound=1 μM; liver microsomes protein=0.5 mg/mL; MgCl2=2 mM; EDTA=1 mM; ACN=0.1%; DMSO=0.05%).
as §4, §5, §6, §7, §8, §9, §10, §11, §12, §13

The conditions of data set [3]: mouse oral PK, female Balb/c, 40 mg/kg single dose; for AUC0-t / Cmax / Tmax / t1/2: plasma.
Method: Pharmacokinetics of test compounds was evaluated following an oral administration of a single dose (at 40 mg/kg) to female Balb/c mice.
Procedure: Test compounds were administered to Balb/c mice (n=3 per sex per time point) by a single oral gavage. The target dose level for oral administration was 40 mg/kg. Blood samples were collected at pre-dose, and at 0.083, 0.25, 0.50, 1, 2, 4, 6, 8, and 12 hours post-dose. Concentrations of test compound were determined by an LC-MS/MS. Non-compartmental Pharmacokinetic parameters of test compounds were analyzed using Phoenix WinNonlin 8.3.
Animal Dosing: All animals were fasted overnight through approximately 4 hours post-dose. Tap water was provided to mice ad Libitum. The mice were dosed orally at 10.0 ml/kg. The formulation volume of the test compound administered to each animal was calculated based on the body weight measured on the day of dosing.
Sample Collection and Analysis: Approximately 0.20 mL of blood was collected via orbital sinus vein puncture into EDTA-K2 tubes. Plasma samples were harvested by centrifugation and stored at −80° C. until analysis. The analytical method for test compound involved protein precipitation by adding acetonitrile containing 1% FA and internal standard (A-1-a synthesized in house or Tolbutamide purchased from Sigma), and final analysis by LC-MS/MS. A standard curve was prepared using mouse plasma for the test compound. The calibration curve was linear over a concentration range of 1.0 to 1000 ng/mL.
Pharmacokinetic and Statistic Analysis: The reported plasma concentrations of test compounds were used to determine pharmacokinetic parameters, using a non-compartmental model for data analysis (Phoenix WinNonlin 8.3). The common pharmacokinetic parameters were calculated, whenever possible, from the plasma concentration-versus-time data. Nominal doses and sampling times were used, except where deviations were noted. […] BQL after Tmax would not participate in calculation of PK parameters.

Take `COc1cccc2[nH]c(C(=O)N[C@@H](CC(C)C)C(=O)N[C@H](C#N)C[C@@H]3CCNC3=O)cc12` [Compound A-5-b]: in the data set on SARS-CoV-2, the “anti-SARS-CoV2 (PRNT) in Vero E6 EC50 (μM)” value (shortened to “anti-SARS-CoV2 (PRNT)”) was “inactive”. Also, in data set [1], the “Liver Microsomal Stability (ER) Human” value came to 0.08. Also, in data set [2], the “Liver Microsomal Stability (ER) SD rat” value stood at 0.22, the “Liver Microsomal Stability (ER) Beagle dog” value came out at 0.12, the “Liver Microsomal Stability (ER) Monkey” value was determined as 0.47 and the “Liver Microsomal Stability (ER) Mouse” value was 0.11.

Turning to `COc1cccc2[nH]c(C(=O)N[C@@H](CC(C)C)C(=O)N[C@@H](C[C@@H]3CCNC3=O)C(=O)CO)cc12` [Compound A-5-d], in the data set on SARS-CoV-2, the EC50 came to 3500 nM. The “Liver Microsomal Stability (ER) Human” value in data set [1] is reported as 0.09. Besides, in data set [2], the “Liver Microsomal Stability (ER) SD rat” value turned out to be 0.11, the “Liver Microsomal Stability (ER) Beagle dog” value amounted to 0.07 and the “Liver Microsomal Stability (ER) Mouse” value came out at 0.38.

Consider `CC(C)C[C@H](NC(=O)OCc1ccccc1)C(=O)N[C@H](C#N)C[C@@H]1CCNC1=O` [Compound B-1-e], for which the EC50 in the data set with SARS-CoV-2 is 10500 nM. In data set [1], the “Liver Microsomal Stability (ER) Human” value stood at 0.24. Moreover, in data set [2], the “Liver Microsomal Stability (ER) SD rat” value came out at 0.48, the “Liver Microsomal Stability (ER) Beagle dog” value was 0.37, the “Liver Microsomal Stability (ER) Monkey” value was determined as 0.11 and the “Liver Microsomal Stability (ER) Mouse” value was 0.00.

`C=CC(=O)N[C@H](C[C@@H]1CCNC1=O)NC(=O)[C@H](CC(C)C)NC(=O)OCc1ccccc1` [Compound B-1-f]: the “anti-SARS-CoV2 (PRNT)” value in the data set with SARS-CoV-2 was “inactive”. Besides, the “Liver Microsomal Stability (ER) Human” value in data set [1] was −0.19. In addition, in data set [2], the “Liver Microsomal Stability (ER) SD rat” value came to 0.13, the “Liver Microsomal Stability (ER) Beagle dog” value worked out at 0.04, the “Liver Microsomal Stability (ER) Monkey” value worked out at 0.04 and the “Liver Microsomal Stability (ER) Mouse” value is given as 0.07.

Turning to `C=CC(=O)N[C@H](C[C@@H]1CCNC1=O)NC(=O)[C@H](CC1CCCCC1)NC(=O)OCc1ccccc1` [Compound B-2-e], in the data set on SARS-CoV-2, the “anti-SARS-CoV2 (PRNT)” value is “inactive”. In data set [1], the “Liver Microsomal Stability (ER) Human” value was 0.73. For the same compound, in data set [2], the “Liver Microsomal Stability (ER) SD rat” value is on record as 0.19, the “Liver Microsomal Stability (ER) Beagle dog” value worked out at 0.47, the “Liver Microsomal Stability (ER) Monkey” value turned out to be 0.70 and the “Liver Microsomal Stability (ER) Mouse” value is 0.43.

In the case of `C[C@@H](OC(C)(C)C)[C@H](NC(=O)OCc1ccccc1)C(=O)N[C@@H](CC1CCCCC1)C(=O)N[C@H](C=O)C[C@@H]1CCNC1=O` [Compound C-2-b], in the data set with SARS-CoV-2, the EC50 was 730 nM. Also, the “Liver Microsomal Stability (ER) Human” value in data set [1] is recorded as 0.66. Besides, in data set [2], the “Liver Microsomal Stability (ER) SD rat” value came to 0.29, the “Liver Microsomal Stability (ER) Beagle dog” value is reported as 0.48, the “Liver Microsomal Stability (ER) Monkey” value stood at 0.43 and the “Liver Microsomal Stability (ER) Mouse” value came to 0.48. In data set [3], the “F % (bioavailability)” value is listed as 5.0%, the “AUC0-t” value worked out at 665.2 ng·h/mL, the “Cmax” value was found to be 496 ng/mL and the “Tmax” value is 15 min. Moreover, the “t1/2” value in data set [3] is 52.6 min.

Regarding `CC(C)(C)[C@H](NC(=O)C(F)(F)F)C(=O)N1C[C@H]2[C@@H]([C@H]1C(=O)N[C@@H](C[C@@H]1CCNC1=O)C(=O)CO)C2(C)C` [Compound D-1-c], the EC50 with SARS-CoV-2 is 610 nM. Moreover, the “Liver Microsomal Stability (ER) Human” value in data set [1] is recorded as 0.04. In data set [2], the “Liver Microsomal Stability (ER) SD rat” value was determined as 0.04, the “Liver Microsomal Stability (ER) Beagle dog” value is reported as −0.06 and the “Liver Microsomal Stability (ER) Mouse” value is on record as 0.18. In data set [3], the “AUC0-t” value was determined as 1359 ng·h/mL, the “Cmax” value was 410 ng/mL, the “Tmax” value turned out to be 30 min and the “t1/2” value is 174 min.

Consider `C=CC(=O)N[C@H](C[C@@H]1CCNC1=O)NC(=O)[C@@H]1[C@@H]2[C@H](CN1C(=O)[C@@H](NC(=O)C(F)(F)F)C(C)(C)C)C2(C)C` [Compound D-1-e], for which, in the data set with SARS-CoV-2, the “anti-SARS-CoV2 (PRNT)” value was “inactive”. Moreover, the “Liver Microsomal Stability (ER) Human” value in data set [1] is listed as −0.05. In data set [2], the “Liver Microsomal Stability (ER) SD rat” value is 0.04, the “Liver Microsomal Stability (ER) Beagle dog” value was −0.04, the “Liver Microsomal Stability (ER) Monkey” value is on record as −0.10 and the “Liver Microsomal Stability (ER) Mouse” value is −0.04.

With `C[C@H](NC(=O)[C@@H]1[C@@H]2[C@H](CN1C(=O)[C@@H](NC(=O)C(F)(F)F)C(C)(C)C)C2(C)C)C(=O)CCl` [Compound F-1-b], the “anti-SARS-CoV2 (PRNT)” value with SARS-CoV-2 is “inactive”. The “Liver Microsomal Stability (ER) Human” value in data set [1] was found to be 0.48. Also, in data set [2], the “Liver Microsomal Stability (ER) SD rat” value came out at 0.53, the “Liver Microsomal Stability (ER) Beagle dog” value was 0.46, the “Liver Microsomal Stability (ER) Monkey” value was determined as 0.44 and the “Liver Microsomal Stability (ER) Mouse” value is 0.38.

Take `CC(C)[C@H](NC(=O)[C@@H]1[C@@H]2[C@H](CN1C(=O)[C@@H](NC(=O)C(F)(F)F)C(C)(C)C)C2(C)C)C(=O)CCl` [Compound F-2-b]: the EC50 in the data set on SARS-CoV-2 worked out at 420 nM. Further, in data set [1], the “Liver Microsomal Stability (ER) Human” value came to 0.81. Further, in data set [2], the “Liver Microsomal Stability (ER) SD rat” value is 0.65, the “Liver Microsomal Stability (ER) Beagle dog” value was determined as 0.55, the “Liver Microsomal Stability (ER) Monkey” value worked out at 0.57 and the “Liver Microsomal Stability (ER) Mouse” value worked out at 0.50.

Regarding `C[C@@H](C=O)NC(=O)[C@@H]1[C@@H]2[C@H](CN1C(=O)[C@@H](NC(=O)C(F)(F)F)C1CC1)C2(C)C` [Compound F-3-c], in the data set with SARS-CoV-2, the “anti-SARS-CoV2 (PRNT)” value is “inactive”. The “Liver Microsomal Stability (ER) Human” value in data set [1] is recorded as −0.35. Moreover, in data set [2], the “Liver Microsomal Stability (ER) SD rat” value is 0.02, the “Liver Microsomal Stability (ER) Beagle dog” value is recorded as −0.04, the “Liver Microsomal Stability (ER) Monkey” value is reported as −0.03 and the “Liver Microsomal Stability (ER) Mouse” value is listed as −0.05.

For `CC(C)[C@@H](C#N)NC(=O)[C@@H]1[C@@H]2[C@H](CN1C(=O)[C@@H](NC(=O)C(F)(F)F)C1CC1)C2(C)C` [Compound F-4-a], in the data set with SARS-CoV-2, the “anti-SARS-CoV2 (PRNT)” value is “inactive”. Moreover, the “Liver Microsomal Stability (ER) Human” value in data set [1] is given as 0.07. In addition, in data set [2], the “Liver Microsomal Stability (ER) SD rat” value came out at 0.20, the “Liver Microsomal Stability (ER) Beagle dog” value is listed as 0.08, the “Liver Microsomal Stability (ER) Monkey” value worked out at 0.07 and the “Liver Microsomal Stability (ER) Mouse” value is given as 0.03.

As to `CC(C)C[C@H](NC(=O)C(F)F)C(=O)N1C[C@H]2[C@@H]([C@H]1C(=O)N[C@H](C#N)C[C@@H]1CCNC1=O)C2(C)C` [Compound H-1-b], in data set [1], the “Liver Microsomal Stability (ER) Human” value was determined as 0.09. In addition, in data set [2], the “Liver Microsomal Stability (ER) SD rat” value worked out at 0.06, the “Liver Microsomal Stability (ER) Beagle dog” value worked out at 0.05 and the “Liver Microsomal Stability (ER) Mouse” value turned out to be 0.35. For the same compound, in data set [3], the “AUC0-t” value turned out to be 304 ng·h/mL, the “Cmax” value was determined as 193 ng/mL, the “Tmax” value was 30 min and the “t1/2” value came to 143 min.

The EC50 is the concentration giving half of the maximal effect. Broadly, the Cmax is the maximum level reached in the sampled fluid or tissue. The term Tmax denotes the time from dosing to the highest level.

For the origin of these results see US11753373B2, “Protease inhibitors as antivirals” (priority 2021, dated 2023).
